Measurements from article PMC11440508, “Dually Labeled Neurotensin NTS1R Ligands for Probing Radiochemical and Fluorescence-Based Binding Assays” (Journal of Medicinal Chemistry, 2024).
Read-outs that look alike come from different tables or passages of the source. Starred links: 1 amine or outer side, 2 acyl side, 3 side chain; linkers in the order of their positions; H or OH if unused. Non-standard residues stand in square brackets, D forms with d. Residues, ends and D or L forms follow the SMILES beside them. Groups on a side chain read outwards from the residue. *: point of attachment. X1 = CN(C)c1ccc2c(-c3ccc(C(=O)*)cc3C(=O)[O-])c3ccc(=[N+](C)C)cc-3oc2c1; X4 = NCCCCNC(=O)N=C(N)NCCC[C@H](N[*:1])C(=O)[*:2]; dTyr(β,β-Me2) = CC(C)(c1ccc(O)cc1)[C@@H](N)C(=O)O; Tyr(β,β-Me2) = CC(C)(c1ccc(O)cc1)[C@H](N)C(=O)O; Gly(piperidin-4-yl) = N[C@H](C(=O)O)C1CCNCC1; X2 = O=C(CCc1cn(CCCN[*:1])nn1)[*:2]; Pent4ynoyl = C#CCCC(=O)*; Pra = C#CC[C@H](N)C(=O)O; NH(CH2)4NH2 = NCCCCN*; CO = O=C([*:1])[*:2]; Propionyl = CCC(=O)*; GABA = NCCCC(=O)O

Legend:
NTS1R [1] = target: T1, NTS1R (Homo sapiens, UniProt P30989); experiment: Radioligand competition binding with [^3H]UR-MK300 at intact HT-29 colon carcinoma cells; conditions: [^3H]UR-MK300, intact HT-29 cells, 23 °C; read-out: NTS1R pKi ± SEM (converted)
T1 sequence (P30989 whole entry): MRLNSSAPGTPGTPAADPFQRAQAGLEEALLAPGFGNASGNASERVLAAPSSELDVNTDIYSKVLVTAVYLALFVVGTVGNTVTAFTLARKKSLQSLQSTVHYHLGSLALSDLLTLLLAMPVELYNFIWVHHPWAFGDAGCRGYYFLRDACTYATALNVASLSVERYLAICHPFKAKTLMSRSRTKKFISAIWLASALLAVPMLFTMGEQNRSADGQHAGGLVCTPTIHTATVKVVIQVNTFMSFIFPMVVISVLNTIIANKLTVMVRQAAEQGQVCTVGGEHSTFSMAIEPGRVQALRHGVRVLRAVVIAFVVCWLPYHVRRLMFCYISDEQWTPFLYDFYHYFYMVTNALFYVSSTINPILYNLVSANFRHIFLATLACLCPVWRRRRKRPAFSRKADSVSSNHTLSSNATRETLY
Procedure: NTS1R binding affinities were determined in a reported competition binding assay[13] using intact hNTS1R-expressing HT-29 colon carcinoma cells and [^3H]UR-MK300 (structure see Figure 1A) as radioligand (competition binding curves shown in Figure S4, Supporting Information).
NTS1R radioligand competition binding experiments with [^3H]UR-MK300 (molar activity: 2.41 TBq/mmol) and the peptides 6–9, 10a, 10b, 13–16, and 18 were performed with intact hNTS1R-expressing human HT-29 colon carcinoma cells at 23 ± 1 °C using a previously reported protocol.[13] […] Cells were seeded one day before the assay, yielding a confluency of at least 90% on the day of the experiment. Total binding data (including total binding in the absence of competitor) were plotted as dpm values against log(concentration competitor) and analyzed by a four-parameter logistic equation (log(inhibitor) vs response–variable slope, GraphPad Prism 5, GraphPad Software, San Diego, CA) to obtain pIC50 values. Individual pIC50 values were converted to pKi values according to the Cheng–Prusoff equation[60] (logarithmic form). To plot average data from individual binding experiments, data were normalized (100% = “top” of the four-parameter logistic fit, 0% = unspecifically bound radioligand).

NTS1R [2] = target: T1, NTS1R; experiment: Fura-2 Ca^2+ assay at CHO-hNTS1R cells; assay type: cell-based; conditions: agonist mode, read-out: NTS1R pEC50 ± SEM (converted)
NTS1R [3] = target: T1, NTS1R; experiment: High-content imaging (HCI) competition binding, adherent CHO-hNTS1R cells; conditions: labeled probe 13 ([…]), 90 min, 23 °C
Procedure: The final volume per well was 200 μL. […] All experiments were performed in triplicate.

NTS1R [4] = target: T1, NTS1R; experiment: Flow cytometric (FC) competition binding, suspended CHO-hNTS1R cells; conditions: labeled probe 13 (2.6 nM), 90 min, 23 °C
Procedure: Flow cytometry-based NTS1R binding studies were performed with intact CHO-hNTS1R (all kind of experiments) and HT-29 cells (only saturation binding) using a BD FACSCanto II (Becton Dickinson, Heidelberg, Germany), equipped with an argon laser (488 nm) and a red diode laser (640 nm), and a BD High Throughput Sampler (HTS unit) for microtiter plates. Saturation and competition binding experiments were performed in triplicate in 96-well polypropylene plates (Brand 701330, Wertheim, Germany) using the HTS unit for sample injection. Association and dissociation experiments were performed in duplicate in 5 mL polypropylene tubes (VWR, Radnor) using the standard injection port of the flow cytometer. The following gain settings for forward and sideward scatter were applied: FSC, 0 V; SSC, 252 V. Fluorescence was recorded using the PE-channel (excitation: 488 nm, emission: 585 ± 21) nm with a PMT gain of 330–400 V. For measurements using the HTS unit, 45 μL of the sample were injected with a speed of 1.5 μL/s. For measurements, requiring the use of the standard injection port, the medium flow rate ([…]) was used. Measurements were stopped after 30 s (HTS unit) or after counting of 500–3000 gated events (standard injection port). […]
A 96-well polypropylene plate was prefilled with 200 μL of cell suspension. […] Data were analyzed as described for HCI competition binding experiments.

NTS1R [5] = target: T1, NTS1R; experiment: Fluorescence anisotropy (FA) competition binding at hNTS1R-displaying BBVs; parameters: NlucC (C-terminal fragment of nanoluciferase, 11 amino acids) (C); made in house; host or cells: Sf9 insect cells, baculovirus (pIMACE-CMVintP10-hNTS1R-Nluc, DH10MultiBac); budded baculovirus particles; conditions: 27 °C
NTS1R [6] = target: T1, NTS1R; experiment: Radiochemical competition binding with [^3H]13 at membranes of CHO-hNTS1R cells; conditions: labeled probe [^3H]13 ([…]), 50 μM GppNHp, 23 °C
NTS1R [7] = target: T1, NTS1R; experiment: Radiochemical competition binding, suspended CHO-hNTS1R cells; conditions: labeled probe [^3H]13 (1.8 nM), 90 min, 23 °C
NTS1R [8] = conditions: reported binding data, cited from earlier work
NTS1R [9] = target: T1, NTS1R; experiment: Radiochemical competition binding, adherent CHO-hNTS1R cells; conditions: labeled probe [^3H]13 (1.3 nM), 90 min, 23 °C

Question: With C#CCCC(=O)N[C@H](C(=O)N1CCC[C@H]1C(=O)N[C@@H](CCCNC(N)=NC(=O)NCCCCN)C(=O)N[C@@H](CCCNC(=N)N)C(=O)N1CCC[C@H]1C(=O)N[C@@H](Cc1ccc(O)cc1)C(=O)N[C@H](C(=O)N[C@@H](CC(C)C)C(=O)O)[C@@H](C)CC)C1CCNCC1 [Compound 6, N^α-(Pent-4-ynoyl)-2-(piperidin-4-yl)-Gly-Pro-N^ω-[(4-aminobutyl)aminocarbonyl]Arg-Arg-Pro-Tyr-Ile-Leu Tetrakis(hydrotrifluoroacetate)] (Pent4ynoyl-[Gly(piperidin-4-yl)]P[X4]RPYIL-OH) as the compound, how does the Ki (NTS1R [1]) read?
Answer: 603 pM

Question: Which Ki (NTS1R [1]) does the source give for C#CC[C@H](NC(=O)CCCN)C(=O)N[C@H](C(=O)N1CCC[C@H]1C(=O)N[C@@H](CCCNC(=N)N)C(=O)N[C@@H](CCCNC(=N)N)C(=O)N1CCC[C@H]1C(=O)N[C@@H](Cc1ccc(O)cc1)C(=O)N[C@H](C(=O)N[C@@H](CC(C)C)C(=O)O)[C@@H](C)CC)C1CCNCC1 [Compound 9] (H-[GABA][Pra][Gly(piperidin-4-yl)]PRRPYIL-OH) here?
Answer: 302 pM

Question: For C#CCCC(=O)N[C@H](C(=O)N1CCC[C@H]1C(=O)N[C@@H](CCCNC(=N)NC(=O)NCCCCN)C(=O)N[C@@H](CCCNC(=N)N)C(=O)N1CCC[C@H]1C(=O)N[C@H](C(=O)N[C@H](C(=O)N[C@@H](CC(C)C)C(=O)O)[C@@H](C)CC)C(C)(C)c1ccc(O)cc1)C1CCNCC1 [Compound 10a, N^α-(Pent-4-ynoyl)-2-(piperidin-4-yl)-Gly-Pro-N^ω-[(4-aminobutyl)aminocarbonyl]Arg-Arg-Pro-β,β-dimethyl-L-Tyr-Ile-Leu Tetrakis(hydrotrifluoroacetate)] (Pent4ynoyl-[Gly(piperidin-4-yl)]PR([CO-NH(CH2)4NH2])RP[Tyr(β,β-Me2)]IL-OH), which EC50 (NTS1R [2]) is on record?
Answer: 316 pM

Question: With C#CCCC(=O)N[C@H](C(=O)N1CCC[C@H]1C(=O)N[C@@H](CCCNC(N)=NC(=O)NCCCCN)C(=O)N[C@@H](CCCNC(=N)N)C(=O)N1CCC[C@H]1C(=O)N[C@@H](C(=O)N[C@H](C(=O)N[C@@H](CC(C)C)C(=O)O)[C@@H](C)CC)C(C)(C)c1ccc(O)cc1)C1CCNCC1 [Compound 10b, N^α-(Pent-4-ynoyl)-2-(piperidin-4-yl)-Gly-Pro-N^ω-[(4-aminobutyl)aminocarbonyl]Arg-Arg-Pro-β,β-dimethyl-D-Tyr-Ile-Leu Tetrakis(hydrotrifluoroacetate)] (Pent4ynoyl-[Gly(piperidin-4-yl)]P[X4]RP[dTyr(β,β-Me2)]IL-OH) as the compound, how does the Ki (NTS1R [1]) read?
Answer: 135000 pM

Question: For CCC(=O)NCCCC[C@@H](NC(=O)CCc1cn(CCCNC(=O)c2ccc(-c3c4ccc(=[N+](C)C)cc-4oc4cc(N(C)C)ccc34)c(C(=O)[O-])c2)nn1)C(=O)N1CCC[C@H]1C(=O)N[C@@H](CCCNC(=N)N)C(=O)N[C@@H](CCCNC(=N)N)C(=O)N1CCC[C@H]1C(=O)N[C@@H](Cc1ccc(O)cc1)C(=O)N[C@H](C(=O)N[C@@H](CC(C)C)C(=O)O)[C@@H](C)CC [Compound 15] (X1-[X2][dK](Propionyl)PRRPYIL-OH), which Ki (NTS1R [1]) is on record?
Answer: 2950 pM

Question: With CCC(=O)NCCCC(=O)N[C@@H](Cc1cn(CCCNC(=O)c2ccc(-c3c4ccc(=[N+](C)C)cc-4oc4cc(N(C)C)ccc34)c(C(=O)[O-])c2)nn1)C(=O)N[C@H](C(=O)N1CCC[C@H]1C(=O)N[C@@H](CCCNC(=N)N)C(=O)N[C@@H](CCCNC(=N)N)C(=O)N1CCC[C@H]1C(=O)N[C@@H](Cc1ccc(O)cc1)C(=O)N[C@H](C(=O)N[C@@H](CC(C)C)C(=O)O)[C@@H](C)CC)C1CCNCC1 [Compound 16] as the compound, how does the Ki (NTS1R [1]) read?
Answer: 724 pM

Question: Which “HCI: pKi ± SEM” value (NTS1R [3]) does the source give for SR142948 here?
Answer: 9.42 ± 0.21

Question: What about the “FC: pKi ± SEM” value (NTS1R [4]) of the same compound?
Answer: 9.24 ± 0.15

Question: And the “FA: pKi ± SEM” value (NTS1R [5]; labeled probe 13 (0.3 nM), NTS1R-BBVs, 90 min)?
Answer: 8.97

Question: And the “FA: pKi” value (NTS1R [5]; labeled probe 18, NTS1R-BBVs)?
Answer: 9.19

Question: What about the “pKi ± SEM” value (NTS1R [6]) of the same compound?
Answer: 9.56 ± 0.06

Question: What about the “RC cell suspension: pKi ± SEM” value (NTS1R [7]) of the same compound?
Answer: 8.19 ± 0.16

Question: And the Ki (NTS1R [8]; ref 13)?
Answer: 1100 pM

Question: What about the Ki (NTS1R [8]; ref 52) of the same compound?
Answer: 1000 pM

Question: And the “RC adherent cells: pKi ± SEM” value (NTS1R [9])?
Answer: 8.31 ± 0.18
